Assay results taken from PMC5951806, “Rapid labelling and covalent inhibition of intracellular native proteins using ligand-directed N-acyl-N-alkyl sulfonamide” (Nature Communications, 2018).

Experiments:
Assay in all cases: TMT LC-MSMS of 11-labelled proteins
Assay type in all cases: cell-based
[1] = molecular target: L-lactate dehydrogenase B chain (LDHB) (Homo sapiens, UniProt P07195)
From the text: (§1) The labelled proteins were enriched by immunoprecipitation with an anti-fluorescein antibody and tryptically digested in gel. Digested peptides were modified with Light- (L-), Medium- (M-), or Heavy- (H-) TMT reagent for samples treated with 11, 11 with PU-H71 (as competitive condition), or DMSO (vehicle), respectively, and mixed in a 1:1:1 ratio for LC-MSMS analysis. We performed three experimental replicates, in which proteins detected and quantified at least twice were selected as identified proteins. According to the related approach of Cravatt et al[44], the proteins having L/H (11/DMSO) ratios >5 were defined as 11-labelled proteins. […] On the basis of these criteria, we identified 6 proteins that react with 11, including three ligand-specific targets (Hsp90α (HSP90AA1), Hsp90β (HSP90AB1), and Grp94 (HSP90B1)) and three off-targets (Trifunctional enzyme subunit α (HADHA), Tubulin-α (TUBA1B), and ADP/ATP translocase 3 (SLC25A6)) (Fig. 5d, e and Supplementary Data 1). […] Grp94, a HSP90 isomer, was previously reported to be a PU-H71 specific target. TRAP-1, another Hsp90 isomer that can bind PU-H71, on the other hand, was not identified as 11-target by our criteria.
(§2) SKBR3 human breast cancer cells (2.0 × 10^6 cells) were seeded on a 10 cm dish and cultured for 3 days in McCoy’s 5A in a 5% CO2 humidified chamber at 37 °C. […] As competitive experiments, the labelling was conducted in the presence of PU-H71 (10 µM). After labelling, the cells were washed twice with PBS, and lysed with RIPA buffer. […] The supernatant was mixed with chilled acetone and incubated overnight at −80 °C. The protein precipitates were solubilized by sonication in 1 mL of RIPA buffer containing 1% SDS, and then 10-fold diluted with RIPA buffer to reduce SDS concentration to c.a. 0.1%. The protein solution (containing 1 mg of protein) was mixed with Protein G Sepharose 4 Fast Flow (GE Healthcare) and rotated at 4 °C for 1 h. After removal of the beads, the remaining supernatant was mixed with anti-fluorescein antibody (Abcam, ab19491, 7:10000) and rotated at 4 °C for 1 h, followed by addition of fresh Protein G Sepharose 4 Fast Flow and further incubation at 4 °C for 4 h. The beads were washed five times with RIPA buffer and once with PBS. Proteins were eluted from the beads by addition of 2 × sample buffer containing 100 mM DTT and boiling at 95 °C for 5 min. The samples were subjected to a 7.5% SDS–PAGE gel (Mini-PROTEAN TGX Gels, BioRad), and electrophoresed as the migration distance of dye front is about 10 mm. Each lane was excised (height, 10 mm), and treated with a 47.5% methanol / 47.5% pure water / 5% acetic acid for 20 min, a 50% methanol / 50% pure water for 10 min, and in pure water for 10 min. The gel pieces were dehydrated with 100% acetonitrile, and then swelled with 200 μL of 100 mM TEAB (triethylamine bicarbonate) buffer containing 10 mM DTT and heated at 56 °C for 30 min. The solutions were replaced with 200 µL of 100 mM TEAB buffer containing 55 mM iodoacetamide and incubated for 45 min in the dark. The gel pieces were washed with 100 mM TEAB buffer and dehydrated in acetonitrile. This step was repeated once. The gels were reswelled in 100 mM TEAB buffer containing 10 ng/μL Sequencing Grade Trypsin (Promega) and incubated overnight at 37 °C. To the gels, 50 μL of an extraction solution (50% acetonitrile, 0.1% TFA) was added. After 10 min incubation, the supernatants were collected to new tubes, and this process was repeated twice. Extracted peptides were dried in vacuo and reconstituted with 25 μL of 100 mM TEAB buffer.

[2] = molecular target: Transferrin receptor protein 1 (TFRC) (Homo sapiens, UniProt P02786)
Sequence of Transferrin receptor protein 1 (TFRC) (P02786 whole entry): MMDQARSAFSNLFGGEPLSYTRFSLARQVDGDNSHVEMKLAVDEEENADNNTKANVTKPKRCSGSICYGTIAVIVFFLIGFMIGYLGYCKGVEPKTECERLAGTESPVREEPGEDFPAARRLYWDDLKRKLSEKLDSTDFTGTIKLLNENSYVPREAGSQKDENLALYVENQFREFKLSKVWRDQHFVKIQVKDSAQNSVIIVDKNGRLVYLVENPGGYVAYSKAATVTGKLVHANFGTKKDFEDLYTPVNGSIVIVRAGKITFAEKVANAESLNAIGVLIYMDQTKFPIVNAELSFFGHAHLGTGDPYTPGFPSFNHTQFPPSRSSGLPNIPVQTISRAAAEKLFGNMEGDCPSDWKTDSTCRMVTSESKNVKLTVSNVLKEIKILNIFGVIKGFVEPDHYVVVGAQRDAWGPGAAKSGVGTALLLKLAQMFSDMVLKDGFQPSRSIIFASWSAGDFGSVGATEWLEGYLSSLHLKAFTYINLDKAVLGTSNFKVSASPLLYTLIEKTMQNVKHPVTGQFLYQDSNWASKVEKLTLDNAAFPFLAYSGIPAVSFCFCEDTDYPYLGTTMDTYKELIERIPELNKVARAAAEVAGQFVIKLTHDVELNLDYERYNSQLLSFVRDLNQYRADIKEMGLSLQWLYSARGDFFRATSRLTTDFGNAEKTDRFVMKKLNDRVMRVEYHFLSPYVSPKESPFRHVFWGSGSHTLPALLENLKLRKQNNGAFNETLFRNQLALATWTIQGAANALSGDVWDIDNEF
From the text: as §1, §2

[3] = molecular target: T1, prenylcysteine oxidase 1 (PCYOX1) (Homo sapiens, UniProt Q9UHG3)
T1 sequence (Q9UHG3 28-505): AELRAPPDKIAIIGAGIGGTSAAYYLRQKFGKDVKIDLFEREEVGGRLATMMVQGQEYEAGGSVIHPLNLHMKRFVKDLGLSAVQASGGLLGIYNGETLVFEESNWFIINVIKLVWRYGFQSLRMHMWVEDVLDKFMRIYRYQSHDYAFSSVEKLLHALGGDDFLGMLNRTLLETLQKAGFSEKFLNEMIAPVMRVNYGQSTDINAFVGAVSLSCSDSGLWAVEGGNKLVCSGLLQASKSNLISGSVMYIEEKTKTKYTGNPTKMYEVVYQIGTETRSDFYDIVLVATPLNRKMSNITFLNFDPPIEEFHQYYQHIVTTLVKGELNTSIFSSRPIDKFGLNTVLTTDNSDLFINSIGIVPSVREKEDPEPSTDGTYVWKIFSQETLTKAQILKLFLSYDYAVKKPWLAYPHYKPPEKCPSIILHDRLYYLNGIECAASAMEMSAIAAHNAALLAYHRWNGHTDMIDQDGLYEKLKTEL
From the text: as §1, §2

[4] = molecular target: Argininosuccinate synthase (ASS1) (Homo sapiens, UniProt P00966); conditions: sheet Merged, SKBR3 cells
Sequence of Argininosuccinate synthase (ASS1) (P00966 whole entry): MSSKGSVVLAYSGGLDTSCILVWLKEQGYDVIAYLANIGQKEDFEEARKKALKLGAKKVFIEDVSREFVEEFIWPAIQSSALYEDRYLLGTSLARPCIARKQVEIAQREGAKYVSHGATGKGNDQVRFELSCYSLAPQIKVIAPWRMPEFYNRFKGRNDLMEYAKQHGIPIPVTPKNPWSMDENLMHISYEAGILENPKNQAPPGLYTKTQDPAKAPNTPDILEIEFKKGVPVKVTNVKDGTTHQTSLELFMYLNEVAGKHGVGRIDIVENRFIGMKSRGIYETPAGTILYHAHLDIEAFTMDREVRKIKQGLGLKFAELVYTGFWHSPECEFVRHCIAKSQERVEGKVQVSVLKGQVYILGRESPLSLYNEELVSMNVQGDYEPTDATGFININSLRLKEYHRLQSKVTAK
From the text: as §1, §2

[5] = molecular target: Tubulin beta-4B chain (TUBB4B) (Homo sapiens, UniProt P68371)
Sequence of Tubulin beta-4B chain (TUBB4B) (P68371 whole entry): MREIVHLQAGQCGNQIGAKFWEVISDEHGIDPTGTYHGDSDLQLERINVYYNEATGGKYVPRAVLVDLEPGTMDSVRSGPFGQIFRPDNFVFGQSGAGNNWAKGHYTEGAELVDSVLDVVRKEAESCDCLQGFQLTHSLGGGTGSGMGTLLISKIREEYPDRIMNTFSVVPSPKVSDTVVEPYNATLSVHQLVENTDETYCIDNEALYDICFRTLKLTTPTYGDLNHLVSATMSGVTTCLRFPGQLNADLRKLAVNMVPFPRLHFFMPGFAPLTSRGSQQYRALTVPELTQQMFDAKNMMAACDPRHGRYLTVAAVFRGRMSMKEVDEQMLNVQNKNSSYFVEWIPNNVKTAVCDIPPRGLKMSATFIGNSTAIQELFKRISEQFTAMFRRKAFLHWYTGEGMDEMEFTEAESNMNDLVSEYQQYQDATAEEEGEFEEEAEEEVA
Sequence of Tubulin beta-4B chain (TUBB4B) (P68363 whole entry partner): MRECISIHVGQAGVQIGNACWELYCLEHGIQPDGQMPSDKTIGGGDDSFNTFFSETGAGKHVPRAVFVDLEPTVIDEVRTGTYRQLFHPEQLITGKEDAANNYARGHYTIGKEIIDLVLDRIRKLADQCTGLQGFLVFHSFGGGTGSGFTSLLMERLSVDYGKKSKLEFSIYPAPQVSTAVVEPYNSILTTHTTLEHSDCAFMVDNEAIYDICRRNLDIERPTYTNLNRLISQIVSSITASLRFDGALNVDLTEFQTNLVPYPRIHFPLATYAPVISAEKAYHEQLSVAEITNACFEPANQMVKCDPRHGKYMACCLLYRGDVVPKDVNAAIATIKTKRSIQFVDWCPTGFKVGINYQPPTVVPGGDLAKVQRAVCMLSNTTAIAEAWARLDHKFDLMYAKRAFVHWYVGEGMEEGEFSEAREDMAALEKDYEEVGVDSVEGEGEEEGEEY
From the text: as §1, §2

[6] = sheet Exp1, SKBR3 cells, 11 0.5 µM 3 h vs DMSO
[7] = sheet Exp1, SKBR3 cells, 11 0.5 µM 3 h vs with PU-H71 10 µM
[8] = sheet Merged, SKBR3 cells, 11 0.5 µM 3 h vs DMSO
[9] = sheet Merged, SKBR3 cells, 11 0.5 µM 3 h vs with PU-H71 10 µM

Sequence of L-lactate dehydrogenase B chain (LDHB) (P07195 whole entry): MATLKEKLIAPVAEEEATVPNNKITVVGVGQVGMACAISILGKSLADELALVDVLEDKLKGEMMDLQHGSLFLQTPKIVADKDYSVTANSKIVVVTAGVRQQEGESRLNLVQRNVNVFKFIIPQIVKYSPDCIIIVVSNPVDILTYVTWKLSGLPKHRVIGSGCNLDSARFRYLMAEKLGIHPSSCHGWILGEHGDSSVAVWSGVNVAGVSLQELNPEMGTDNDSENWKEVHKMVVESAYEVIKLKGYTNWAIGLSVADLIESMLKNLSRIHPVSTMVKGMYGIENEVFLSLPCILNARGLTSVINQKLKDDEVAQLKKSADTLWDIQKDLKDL

SMILES: CC(=O)Oc1ccc2c(c1)Oc1cc(OC(C)=O)ccc1C21OC(=O)c2cc(C(=O)NCCOCCOCCNC(=O)CCCC(=O)N(CC#N)S(=O)(=O)c3ccc(C(=O)NCCCn4c(Sc5cc6c(cc5I)OCO6)nc5c(N)ncnc54)cc3)ccc21 [compound 11]
- Abundance Ratio: (11) / (DMSO) [1, 6]: 3.283
- Abundance Ratio: (11) / (11 with PU-H71) [1, 7]: 0.769
- Abundance Ratio: (11) / (11 with PU-H71) ([1]; sheet Exp2, LDHB): 0.731
- Abundance Ratio: (11) / (DMSO) ([1]; sheet Exp2, LDHB): 3.172
- Abundances (Grouped): 11 ([1]; sheet Exp2, LDHB): 66.3
- Abundances (Grouped): 11 with PU-H71 ([1]; sheet Exp2, LDHB, with PU-H71): 90.7
- Abundance Ratio: (11) / (DMSO) [1, 8]: 3.227
- Abundance Ratio: (11) / (11 with PU-H71) [1, 9]: 0.75
- Abundance Ratio: (11) / (DMSO) [2, 6]: 1.5
- Abundance Ratio: (11) / (11 with PU-H71) [2, 7]: 0.917
- Abundance Ratio: (11) / (11 with PU-H71) ([2]; sheet Exp2, TFRC): 1.036
- Abundance Ratio: (11) / (DMSO) ([2]; sheet Exp2, TFRC): 2.96
- Abundances (Grouped): 11 ([2]; sheet Exp2, TFRC): 95.6
- Abundances (Grouped): 11 with PU-H71 ([2]; sheet Exp2, TFRC, with PU-H71): 92.3
- Abundance Ratio: (11) / (DMSO) [2, 8]: 2.107
- Abundance Ratio: (11) / (11 with PU-H71) [2, 9]: 0.975
- Abundance Ratio: (11) / (11 with PU-H71) ([3]; Exp3, PCYOX1): 0.713
- Abundance Ratio: (11) / (DMSO) ([3]; Exp3, PCYOX1): 1.251
- Abundances (Grouped): 11 ([3]; Exp3, PCYOX1): 54.9
- Abundances (Grouped): 11 with PU-H71 ([3]; Exp3, PCYOX1, with PU-H71): 77
- Abundance Ratio: (11) / (DMSO) [3, 6]: 1.831
- Abundance Ratio: (11) / (11 with PU-H71) [3, 7]: 0.86
- Abundance Ratio: (11) / (DMSO) [3, 8]: 1.513
- Abundance Ratio: (11) / (11 with PU-H71) [3, 9]: 0.783
- Abundance Ratio: (11) / (DMSO) ([4]; 11 0.5 µM 3 h vs DMSO): 2.736
- Abundance Ratio: (11) / (11 with PU-H71) ([4]; 11 0.5 µM 3 h vs with PU-H71 10 µM): 0.837
- Abundance Ratio: (11) / (11 with PU-H71) ([5]; Exp3, TUBB4B): 1.068
- Abundance Ratio: (11) / (DMSO) ([5]; Exp3, TUBB4B): 3.456
- Abundances (Grouped): 11 ([5]; Exp3, TUBB4B): 287.5
- Abundances (Grouped): 11 with PU-H71 ([5]; Exp3, TUBB4B): 269.1
- Abundance Ratio: (11) / (DMSO) [5, 6]: 3.652
- Abundance Ratio: (11) / (11 with PU-H71) [5, 7]: 1.046
- Abundance Ratio: (11) / (11 with PU-H71) ([5]; sheet Exp2, TUBB4B): 0.891
- Abundance Ratio: (11) / (DMSO) ([5]; sheet Exp2, TUBB4B): 2.612
- Abundances (Grouped): 11 ([5]; sheet Exp2, TUBB4B): 209.5
- Abundances (Grouped): 11 with PU-H71 ([5]; sheet Exp2, TUBB4B): 235
- Abundance Ratio: (11) / (DMSO) [5, 8]: 3.477
- Abundance Ratio: (11) / (11 with PU-H71) [5, 9]: 1.054
